# Measurements as given in patent US20090264306A1, “DNA METHYLATION BIOMARKERS IN LYMPHOID AND HEMATOPOIETIC MALIGNANCIES” (Curators of the University of Missouri, priority 2005, published 2009).
# Tested on: NHL lines RL, Daudi, DB, Raji, Granta 519 and Mec-1
# Experiment: Reactivation of methylated genes by DAC and TSA in NHL cell lines, real time RT-PCR
# Format: cell-based, Human
# Source text: Cell Lines and Drug Treatments. Human NHL lines RL, Daudi, DB, Raji, Granta 519 and Mec-1 were maintained in RPMI 1640 media. The germinal center related cell line RL is derived from a patient with FL and the t(14,18) gene rearrangement (12), and Daudi and Raji cells are of germinal center derivation. The postgerminal center cell line DB is a DLBCL cell line that has undergone isotype switching (12). […] Granta 519 is an MCL cell line over-expressing cyclin D1 (13) and Mec-1 is a transformed B-CLL/SLL cell line (14). For gene reactivation experiments, cells were cultured in the presence of vehicle (PBS) or DAC (1.0 μM; medium changed every 24 h). After 4 days, cells were either harvested or further treated with TSA (1.0 μM) for 12 h and then harvested. Some cells were also treated with TSA alone for 12 h before harvest. Genomic DNA or total RNA was isolated using Qiagen™ kits (Qiagen, Valencia Calif.) and used for methylation and gene expression analysis, respectively.
# Real-time RT-PCR. Total RNA (2 μg) was pre-treated with DNase I to remove potential DNA contaminants and reverse-transcribed in the presence of SuperScript III™ reverse transcriptase (Invitrogen, Carlsbad, Calif.). The generated cDNA was used for PCR amplification with the system described above. The Taqman™ probe and primer sets for real time PCR were purchased from Applied Biosystems (Foster City, Calif.). Separate parallel reactions were run for GAPDH cDNA using a series of diluted cDNA samples as templates to generate standardization curves. The mRNA levels were derived from the standardization curves and expressed as relative changes after normalization to those of GAPDH.
# [1] = NHL cell lines, DAC 1.0 μM 4 days, TSA 1.0 μM 12 h, normalized to GAPDH, combination effect in most of the cell lines
compound,measurement,setting,value
"Nc1ncn([C@H]2C[C@H](O)[C@@H](CO)O2)c(=O)n1 [DAC, 5-aza-2-deoxycytidine]",CCND1 expression,"Granta 519 cell line, DAC alone",down regulated
same,CYP27B1 gene expression after treatment,[1],weakly to moderately up-regulated
same,RARβ2 gene expression after treatment,[1],weakly to moderately up-regulated
